Data set [1] addresses T1, thrombin (Homo sapiens, UniProt P00734). The data set can be described thus: β-Peptide assay (thrombin inhibition as a function of binding to immobilized β-peptide). In kind it is biochemical. The note with it: fitted parameter ± SD. The protocol:
96-well microtiter plates were coated overnight at 4° C. with β-peptide. 100 μl coating buffer (20 mM Tris, 50 mMNaCl, 1 mM CaCl2, 1 mM MgC2, pH 7.4) containing 0.005 mg β-peptide were applied to each well. After coating, the microtiter plate was first washed 5 times with coating buffer supplemented with 0.05% Tween 20 and then three times with water. Free binding sites were blocked overnight at 4° C. by the addition of 250 μl bovine serum albumin (2% w/v in coating buffer) per well. […]
After washing 7 times with modified coating buffer (20 mM Tris, 0.5 M NaCl2, 1 mM CaCl2, 1 mM MgCl2, 0.2% Tween 20, pH 7.4) and three times with water, 100 μl of assay buffer (20 mMNaHPO4, 0.15M NaCl, 0.1% BSA, pH 7.4) were applied per well and 20 μl (1.25 U/ml) of thrombin solution were allowed to incubate for 1 h at room temperature. Then 50 μl of chromogenic substrate (S-2238 at 0.83 mg/ml) were applied and after 20 minutes, the reaction was stopped by addition of 50 μl of 20% acetic acid, and the resulting absorption read at 405 nm. Hirudin activity was detected as inhibition of thrombin activity and was expressed as % inhibition of total thrombin activity applied. […]

Data set [2] concerns the target T1, thrombin. The note with it: r-Hirudin as obtained from Knoll AG; cited from earlier work.
In data set [3] the test system is fibrin deposition on the surface of a clot suspended in human plasma. As to the kind of experiment: Inhibition of thrombus growth in human plasma. Type of data set: biochemical. The protocol:
The method of Runge (Runge et al., Biochemistry 27:1153-1157, 1988, herein incorporated by reference) was followed, with the following modifications. Fresh-frozen plasma obtained from 5 donors was pooled, aliquoted and refrozen. Before each experiment, plasma was ultracentrifuged at 30,000 rpm for 60 min in a Beckmann SW 40 rotor in order to obtain platelet-free plasma (platelet count less than 1,000 platelets/μl). Immediately before each experiment, the anti-thrombin activities of hirudin and hirudin conjugate were calibrated using the S-2238 assay (i.e., the inhibition of thrombin peptidase activity by hirudin and its conjugates was determined, and appropriate dilutions were made so that the inhibition of thrombin peptidase activity was identical for each sample). Platelet-free plasma clots were made by adding to plasma, in the following sequence: ^125 I-labelled human fibrinogen (20,000 cpm/ml plasma), 0.5M CaCl2 (final concentration 0.05M) and thrombin (0.5 NIH units/ml plasma). Immediately after the addition of thrombin, the solution was drawn into silastic tubing (i.d. 4 mm) and allowed to clot for 2 h at 37 ° C. The tubing was then cut into 1.8 cm sections yielding clots of approximately 0.2 ml. The clots were removed from the tubing, and each was placed in a plastic vial and washed three times with 2 ml 0.15M NaCl. The radioactivity level of each was then determined and only clots within 5% of the mean value were used for experiments.
After counting, clots were resuspended in 100 μl TBS (0.1M Tris, 0.1M NaCl, pH 7.4). Experiments were initiated by the addition of 100 μl hirudin or conjugate solution containing defined amounts of anti-thrombin activity. […] At predetermined intervals, clots were removed from the test tube, washed three times with 2 ml 0.15M NaCl and assayed for radioactivity. Clots incubated without thrombin inhibitor (NaCl-controls) often could not be quantitatively removed from the incubation vial because of complete clotting of the assay mixture. […]

For data set [4], the target named is T1, thrombin. The data set can be described thus: Fibrin-Sepharose assay (thrombin inhibition as a function of binding to immobilized fibrin). In kind it is biochemical. The note with it: 800 units applied. As to the method: This assay is as described by Bode et al., J. Biol. Chem. 262:10819-10823, 1987, herein incorporated by reference, with the following modifications. For the purposes of assaying targeted anti-thrombin activity, trace labeling of fibrin-monomer is not necessary. 200 μl fibrin-Sepharose were incubated for 2.5 h at room temperature with defined amounts (by the S-2238 assay) of hirudin or hirudin-59D8-conjugate (hirudin-59D8-IgG or, alternatively, hirudin-59D8-Fab') in 100 μl of buffer. After washing the fibrin-Sepharose three times with 3 ml 0.15M NaCl, 200 μl S-2238 assay buffer and 40 μl (0.05 U) thrombin solution (1.25 U/ml) were added and incubated for 1 h at room temperature. Subsequently 100 μl of chromogenic substrate S-2238 were added, and the reaction was stopped after 25 min by addition of 100 μl 20% acetic acid. After centrifugation (5 min, 1,000×g), absorption of the supernatant was read at 405 nm. Hirudin activity was again detected as inhibition of thrombin activity and was expressed as % of total thrombin activity applied. […]

Data set [5] deals with fibrin formation on the surface of a plasma clot. As to the kind of experiment: Inhibition of thrombus growth in a fibrinogen solution. The note with it: for 3 h; FIG. 4A. In kind it is biochemical, human. The protocol:
The method of Runge (Runge et al., Biochemistry 27:1153-1157, 1988, herein incorporated by reference) was followed, with the following modifications. Fresh-frozen plasma obtained from 5 donors was pooled, aliquoted and refrozen. Before each experiment, plasma was ultracentrifuged at 30,000 rpm for 60 min in a Beckmann SW 40 rotor in order to obtain platelet-free plasma (platelet count less than 1,000 platelets/μl). Immediately before each experiment, the anti-thrombin activities of hirudin and hirudin conjugate were calibrated using the S-2238 assay (i.e., the inhibition of thrombin peptidase activity by hirudin and its conjugates was determined, and appropriate dilutions were made so that the inhibition of thrombin peptidase activity was identical for each sample). […] The radioactivity level of each was then determined and only clots within 5% of the mean value were used for experiments.
After counting, clots were resuspended in 100 μl TBS (0.1M Tris, 0.1M NaCl, pH 7.4). […] At predetermined intervals, clots were removed from the test tube, washed three times with 2 ml 0.15M NaCl and assayed for radioactivity. Clots incubated without thrombin inhibitor (NaCl-controls) often could not be quantitatively removed from the incubation vial because of complete clotting of the assay mixture. […]

Consider hirudin, for which, in data set [1] (FIG. 2A), the “B1, ultimate thrombin inhibition” value is 4.3±0.5%. In data set [1] (FIG. 2B), the “ultimate inhibition (B1)” value is given as 0%. Also, in data set [2], the specific activity is recorded as 17,000 anti-thrombin units (ATU)/mg. For the same substance, the “fibrin deposition lower than NaCl control” value is 17 µg in data set [3] (at 10 ATU/ml, FIG. 6A) and 112 µg in data set [3] (at 100 ATU/ml, p=0.0001). Moreover, the “fibrin deposition compared with the mixture at 9 ATU/ml” value in data set [3] (hirudin at 44 ATU/ml, p=0,003, FIG. 7) is on record as “lower”. This substance had a thrombin inhibition in data set [4] of 32.3%. Besides, the “concentration giving complete inhibition of fibrin formation” value in data set [5] turned out to be 80 ATU/ml.

The record behind these values is patent US5443827A, “Fibrin-targeted inhibitors of thrombin” (President and Fellows of Harvard College, priority 1993, dated 1995).
